According to patent US10351577B2, “Ether analogues of galiellalactone” (Glactone Pharma Development AB, priority 2015, dated 2019):

Key:
[1] = test system: LNCaP-IL6; test: WST-1 cell proliferation assay on IL-6 stimulated LNCaP; type: cell-based; conditions: Homo sapiens, dose response study
[2] = test system: DU145; test: WST-1 cell proliferation assay on DU145; type: cell-based; conditions: for IC50: Homo sapiens, DU-145, dose response study, DU145
[3] = test system: STAT1; test: STAT1 luciferase reporter gene assay in HeLa cells stimulated with IFNg; type: cell-based; conditions: Homo sapiens, M-HeLa, IFNg overnight
Procedure: In order to further asses the properties of the ether analogues of galiellalactone, the STAT1 activity was determined for some of the novel analogues.

[4] = test system: LNCaP-IL6; test: WST-1 cell proliferation assay on IL-6 stimulated LNCaP; type: cell-based; conditions: for activity at 10 µM: Homo sapiens, LNCaP, 72 h, percent of untreated control cells, read-out: Remaining cell proliferation (%) LNCaP-IL6; for Difference in cell proliferation @ 10 μM (%) (Selectivity) Δ LNCaP − LNCaPIL6: LNCaP minus LNCaP-IL6
Procedure: (§1) The functional activity of the example compounds in comparison to galiellalactone was evaluated using a WST-1 proliferation assay (J. Biol. Chem. 2014, 289:15969-15978) on DU145, LNCaP or IL-6 stimulated LNCaP.
(§2) The cells were cultured in 96-well plates (2000 cells/well in 200 μl of medium) and allowed to set for 24 h. The cells were treated with 10 μM of an example compound or galiellalactone for 72 h. Samples were made in triplicate. 20 μl WST-1 solution (Roche Applied Science) was added per well and incubated at 37° C. for 4 h. The absorbance of each well was measured using a scanning multi-well spectrophotometer, ELISA reader at a wavelength of 450 nm and reference wavelength of 690 nm. The results presented in Tables 2 and 3 below are presented as percent of untreated control cells.

[5] = test system: DU145; test: WST-1 cell proliferation assay on DU145; type: cell-based; conditions: for activity at 10 µM: Homo sapiens, DU-145, 72 h, percent of untreated control cells, read-out: Remaining cell proliferation (%) DU145; for Difference in cell proliferation @ 10 μM (%) (Selectivity) Δ LNCaP − DU145: LNCaP minus DU145
Procedure: as §1, §2

[6] = test system: LNCaP; test: WST-1 cell proliferation assay on LNCaP; type: cell-based; conditions: Homo sapiens, 72 h, percent of untreated control cells, read-out: Remaining cell proliferation (%) LNCaP
Procedure: as §1, §2

[7] = Comparative pharmacokinetic study, single oral dose, plasma by LC-MS/MS; type: in vivo; conditions: mouse, CD1 mice, single oral gavage 10 mg/kg
Procedure: A pharmacokinetic study was performed in CD1 mice to establish plasma exposure following administration of single oral doses of galiellalactone and example 20. Sample analysis was by LC-MS/MS.
Dose solutions were prepared at a drug concentration of 0.5 mg/mL in 5% DMSO in 50 mM citrate buffer (citric acid/sodium citrate pH 4.0) and administered as a 20 mL/kg oral gavage (10 mg/kg).
AUC denotes the plasma exposure of the compound measured with time. More specifically, AUC 0-t is the area under the plasma drug concentration/time curve from 0 minutes to last quantifiable data point. AUC 0-∞ is the area under the plasma drug concentration/time curve from 0 minutes extrapolated to infinity.

[8] = test system: IL-6/STAT3 signaling; conditions: cited from earlier work

IC50 [1]	Selectivity at IC90 against DU145 and LNCaP-IL6 cell proliferation over LNCaP proliferation ([2]; FIG. 1B dose response curves)	IC50 [2]	AUC(0-t) ([7]; 0 min to last quantifiable data point)	AUC(0-inf) ([7]; extrapolated to infinity)	half-life ([7]; read-out: Apparent half-life (converted))	Structure (SMILES)	inhibition at 10 µM [3]	activity at 10 µM [4]	Difference in cell proliferation @ 10 μM (%) (Selectivity) Δ LNCaP − LNCaPIL6 [4]	activity at 10 µM [5]	Difference in cell proliferation @ 10 μM (%) (Selectivity) Δ LNCaP − DU145 [5]	activity at 10 µM [6]	Inhibition of IL-6/STAT3 signaling [8]
1060 nM	very good selectivity	1530 nM				Cc1ccc(COC23C4=CC(C)(F)CC2CCC3OC4=O)cn1 (stereo in doubt) [Example 26, (4R,5aS,7aS,7bR)-5,5a,6,7,7a,7b-hexahydro-7b-[(6-methyl-3-pyridinyl)methoxy]-4-fluoro-4-methyl-indeno[1,7-bc]furan-2(4H)-one]							
						C[C@@H]1C=C2C(=O)O[C@@H]3CCC(C1)[C@]23OCc1ccc(N2CCOCC2)nc1 (stereo partly drawn) [Example 15, (4R,5aS,7aS,7bR)-5,5a,6,7,7a,7b-hexahydro-7b-[(6-(N-morpholino)-3-pyridinyl)methoxy]-4-methyl-indeno[1,7-bc]furan-2(4H)-one]	53%	6.5%	69.6%	9.6%	66.6%	76.1%	
1160 nM		2520 nM	82 ng·h/mL	87 ng·h/mL	72 min	C[C@@H]1C=C2C(=O)O[C@@H]3CC[C@H](C1)[C@]23O [Galiellalactone, (−)-Galiellalactone]	62%	4.7%	38.9%	10.8%	32.8%	43.6%	submicromolar
						COc1ncccc1COC12C3=CC(C)CC1CCC2OC3=O (stereo in doubt) [Example 7, (4R,5aS,7aS,7bR)-5,5a,6,7,7a,7b-hexahydro-7b-[(2-methoxy-3-pyridinyl)methoxy]-4-methyl-indeno[1,7-bc]furan-2(4H)-one]		7%	52.3%	16.7%	42.6%	59.3%	
						CC1C=C2C(=O)OC3CCC(C1)C23OCCc1cccnc1 (stereo in doubt) [Example 3, (4R,5aS,7aS,7bR)-5,5a,6,7,7a,7b-hexahydro-7b-[2-(3-pyridinyl)-ethoxy]-4-methyl-indeno[1,7-bc]furan-2(4H)-one]	38%	8%	60.6%	18.7%	49.9%	68.6%	
						Cc1ccc(COC23C4=CC(C)CC2CCC3OC4=O)cn1 (stereo in doubt) [Example 1, (4R,5aS,7aS,7bR)-5,5a,6,7,7a,7b-hexahydro-7b-[(6-methyl-3-pyridinyl)methoxy]-4-methyl-indeno[1,7-bc]furan-2(4H)-one]	14%	8.6%	54.6%	12.9%	50.3%	63.2%	
						COc1ccnc(COC23C4=CC(C)CC2CCC3OC4=O)c1 (stereo in doubt) [Example 5, (4R,5aS,7aS,7bR)-5,5a,6,7,7a,7b-hexahydro-7b-[(4-methoxy-2-pyridinyl)methoxy]-4-methyl-indeno[1,7-bc]furan-2(4H)-one]	16%	15%	71%	19%	67%	86%	
						Cc1cnc(COC23C4=CC(C)CC2CCC3OC4=O)cn1 (stereo in doubt) [Example 4, (4R,5aS,7aS,7bR)-5,5a,6,7,7a,7b-hexahydro-7b-[(5-methyl-2-pyrazinyl)methoxy]-4-methyl-indeno[1,7-bc]furan-2(4H)-one]	12%	10.7%	44.8%	11.4%	44.1%	55.5%	
						CC1C=C2C(=O)OC3CCC(C1)C23OCc1ccc(Oc2ccccc2)nc1 (stereo in doubt) [Example 2, (4R,5aS,7aS,7bR)-5,5a,6,7,7a,7b-hexahydro-7b-[(6-phenoxy-3-pyridinyl)methoxy]-4-methyl-indeno[1,7-bc]furan-2(4H)-one]	1%	18%	68%	36.1%	49.9%	86%	
						COC(=O)c1cccc(COC23C4=CC(C)CC2CCC3OC4=O)n1 (stereo in doubt) [Example 6, (4R,5aS,7aS,7bR)-5,5a,6,7,7a,7b-hexahydro-7b-[(6-methoxycarbonyl-2-pyridinyl)methoxy]-4-methyl-indeno[1,7-bc]furan-2(4H)-one]		15.9%	49.7%	16.6%	49%	65.6%	
						Cc1ncccc1COC12C3=CC(C)CC1CCC2OC3=O (stereo in doubt) [Example 8, (4R,5aS,7aS,7bR)-5,5a,6,7,7a,7b-hexahydro-7b-[(2-methyl-3-pyridinyl)methoxy]-4-methyl-indeno[1,7-bc]furan-2(4H)-one]		3%	51.5%	10%	44.5%	54.5%	
						C[C@@H]1C=C2C(=O)O[C@@H]3CCC(C1)[C@]23OCc1ccc(NC(=O)C(C)(C)C)nc1 (stereo partly drawn) [Example 9, (4R,5aS,7aS,7bR)-5,5a,6,7,7a,7b-hexahydro-7b-[(6-[(2,2-dimethyl-1-oxopropyl)amino]-3-pyridinyl]methoxy]-4-methyl-indeno[1,7-b]c furan-2(4H)-one]		2.8%	64.8%	9.7%	57.9%	67.6%	
